Values quoted from earlier work, collected in PMC13468302, “African Polyherbal Formulations for Type 2 Diabetes: A Systematic Review and Meta-Analysis of Efficacy, Mechanisms, and Therapeutic Potential” (Plants, 2026).

Tests used:
[1] = system: HFD + STZ (45 mg/kg)-induced diabetic Sprague Dawley rats; conditions: UL 100 mg/kg, metformin 50 mg/kg, UL+Met 100/50 mg/kg, insulin 2U; 28 days; ref [44]
[2] = system: alloxan-induced diabetic Wistar rats; conditions: 300 mg/kg each orally, 21 days; ref [53]
[3] = system: alloxan-induced diabetic Wistar rats; conditions: combination at 400 mg/kg; 21 days; ref [49]

Compound | fasting glucose change [1] | glucose reduction [2] | serum glucose reduction [3]
insulin | −35.65% | 69.1% | –
CN(C)C(=N)N=C(N)N [metformin] | −15.34% | – | –
COc1ccc(Cl)cc1C(=O)NCCc1ccc(S(=O)(=O)NC(=O)NC2CCCCC2)cc1 [glibenclamide] | – | – | 56.5%
